This passage reports IC50 results from US5773446A, “Diamino pyrimidines” (Hoffmann-La Roche Inc., priority 1995, dated 1998).

Assay [1] has as its target T1, purified DHFR of the opportunistic pathogen P. carinii (Pneumocystis carinii, UniProt P16184).
T1 sequence (P16184 1-206): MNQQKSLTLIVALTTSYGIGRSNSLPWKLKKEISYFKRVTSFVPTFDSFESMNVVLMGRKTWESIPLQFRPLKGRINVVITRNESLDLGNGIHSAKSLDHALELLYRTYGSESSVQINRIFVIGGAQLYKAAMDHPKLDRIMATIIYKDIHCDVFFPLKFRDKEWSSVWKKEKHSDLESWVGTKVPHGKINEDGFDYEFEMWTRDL
Nature of the assay: biochemical. The source says: (§1) The inhibition of this enzyme was taken as a measurement for the antibacterial activity.

In assay [2] the target is purified DHFR of the reference strain S. aureus ATCC 25923 (Staphylococcus aureus, UniProt P0A017). Nature of the assay: Inhibition of purified DHFR of reference strain S. aureus ATCC 25923. Format: biochemical.
Excerpt: as §1

Each structure is given as a SMILES string.

Chain of purified DHFR of the reference strain S. aureus ATCC 25923 (P0A017 whole entry): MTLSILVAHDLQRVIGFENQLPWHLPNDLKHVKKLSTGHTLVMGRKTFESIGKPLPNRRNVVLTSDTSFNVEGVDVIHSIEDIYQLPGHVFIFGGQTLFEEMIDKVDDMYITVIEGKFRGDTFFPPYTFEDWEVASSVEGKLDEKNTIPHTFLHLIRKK

One may read the IC50 as the concentration at which inhibition is half-maximal. Read a low IC50 as greater potency. For `COc1cc(Cc2cnc(N)nc2N)c2c(c1OC)OC(CCCC(=O)O)C=C2` (racemic) [Example 6, (RS)-4-[5-(2,4-diamino-pyrimidin-5-ylmethyl)-7,8-dimethoxy-2H-1-benzopyran-2-yl]-butyric acid], the IC50 in assay [1] was 220 nM; in assay [2] it was 5 nM.
The matching figures for `CCCCCC1C=Cc2c(Cc3cnc(N)nc3N)cc(OC)c(OC)c2O1` (racemic) [Example 7, (RS)-5-(7,8-dimethoxy-2-pentyl-2H-1-benzopyran-5-ylmethyl)-pyrimidine-2,4-diamine]: 2800 nM and 16 nM.
The matching figures for `COc1cc(Cc2cnc(N)nc2N)c2c(c1OC)OC(C(C)C)C=C2` (racemic) [Example 8, (RS)-5-(2-isopropyl-7,8-dimethoxy-2H-1-benzopyran-5-ylmethyl)-pyrimidine-2,4-diamine]: 1000 nM and 1 nM.
On to `COc1cc(Cc2cnc(N)nc2N)c2c(c1OC)OC(CC(C)C)C=C2` (racemic) [Example 9, (RS)-5-(2-isobutyl-7,8-dimethoxy-2H-1-benzopyran-5-ylmethyl)-pyrimidine-2,4-diamine], for which the IC50 in assay [1] was 3000 nM; in assay [2] it was 1 nM.
The matching figures for `COc1c(OCCCC(=O)O)cc(Cc2cnc(N)nc2N)c2c1OCC=C2` [Example 10, 4-[5-(2,4-diamino-pyrimidin-5-ylmethyl)-8-methoxy-2H-1-benzopyran-7-yloxy]-butyric acid]: 40 nM and 5 nM.
